Data on one compound can be found in paper PMC6934184, “Selective DNA-PKcs inhibition extends the therapeutic index of localized radiotherapy and chemotherapy” (The Journal of Clinical Investigation, 2019).

In this test the target is T1, DDR2 (Homo sapiens, UniProt Q16832).
T1 construct: purchased Thermo Fisher Scientific (Life Technologies) SelectScreen
The test is described as follows: SelectScreen LanthaScreen. The class given is binding. To be noted: read-out: % displacement. In short, it runs like this:
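Percent values come from Thermo SelectScreen profiling of NU5455, combining activity and binding assays. CSF1R was run in Z'LYTE format at Km app ATP, and CAMK1 in Adapta format with ATP listed at 10.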

T1 sequence (Q16832 22-855): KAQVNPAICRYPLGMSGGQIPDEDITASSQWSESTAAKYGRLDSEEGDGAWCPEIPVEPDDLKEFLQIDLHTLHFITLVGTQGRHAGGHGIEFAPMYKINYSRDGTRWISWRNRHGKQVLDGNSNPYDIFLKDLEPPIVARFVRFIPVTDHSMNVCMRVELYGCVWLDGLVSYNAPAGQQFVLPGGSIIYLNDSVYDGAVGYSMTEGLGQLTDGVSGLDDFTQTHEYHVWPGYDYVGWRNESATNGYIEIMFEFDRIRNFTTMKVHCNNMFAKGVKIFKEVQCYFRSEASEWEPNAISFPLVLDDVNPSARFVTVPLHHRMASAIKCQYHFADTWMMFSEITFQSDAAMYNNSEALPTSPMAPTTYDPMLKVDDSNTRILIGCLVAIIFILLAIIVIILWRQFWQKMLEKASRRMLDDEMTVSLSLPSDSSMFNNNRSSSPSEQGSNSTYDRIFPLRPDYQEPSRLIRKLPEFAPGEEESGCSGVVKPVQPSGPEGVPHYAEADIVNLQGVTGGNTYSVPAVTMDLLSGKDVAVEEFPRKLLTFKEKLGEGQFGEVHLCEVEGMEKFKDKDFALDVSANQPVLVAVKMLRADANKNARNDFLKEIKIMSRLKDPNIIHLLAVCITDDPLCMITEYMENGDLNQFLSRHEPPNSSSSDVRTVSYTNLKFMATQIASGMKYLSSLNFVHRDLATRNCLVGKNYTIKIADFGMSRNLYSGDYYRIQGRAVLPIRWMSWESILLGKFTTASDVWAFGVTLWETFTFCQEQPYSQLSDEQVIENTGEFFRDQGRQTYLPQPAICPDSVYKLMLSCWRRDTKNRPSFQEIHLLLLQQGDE

As for `CN(C(=O)CN1CCOCC1)c1ccc2sc3c(-c4cccc5c(=O)cc(N6CC7CCC(C6)O7)oc45)cccc3c2c1` [NU5455], the inhibition at 1 µM is 0.7%.
